Assay results as given in US20120315308A1, “METHODS AND DEVICES FOR CONTROLLING PARTICLE SIZE AND PARTICLE SIZE DISTRIBUTION” (priority 2010, published 2012).
Several values for one entry are separate records, joined by “and”; a condition that tells them apart may be missing. Equal values may be shown once. Read-outs that look alike come from different tables or passages of the source.

Method: A submicron dispersion of naproxen was prepared using the enhanced initial dispersion followed by a secondary high shear mixing process. The following equipment was used for the experiment:
(1) An Ivek Digispense 3009 controller with an AP motor/base assembly and a AA pump body.
(2) A Micronoson Ultrasonic Cell Distruptor, XL 100 watt ultrasonic controller and a Misonix 22.5 kHz ultrasonic transducer horn with a coaxillal center feed.
(3) Microfluidizer—Microfluidics M-110EH-25 high shear processor with a 75 micron F-20Y interaction chamber.
(4) Horiba LA-950 Laser Diffraction Particle Size Analyzer.
The Ivek Digispense pump speed was calibrated to 20 mL/min.
The end of the ultrasonic horn, also referred to as an ultrasonic probe, was suspended in air, the power to the Ivek pump and the ultrasonic probe was turned on. Ultrasonic power was set to 20 watts. The height of the ultrasonic probe dispense tubing was adjusted until the feed liquid was dispersed as small droplets, thereby creating a fine spray. The tubing was fixed at this height, as above and below this height, dispensed liquid simply drips from the probe.
The tip of the ultrasonic transducer horn was secured just above the check valve in the feed reservoir. The antisolvent was a 0.5% Triton X-100 in dionized water, and 190 mL of the antisolvent was added to the inlet reservoir of the Microfluidizer. Naproxen has a tendency to agglomerate, therefore, nonionic Triton X-100 surfactant was used as the antisolvent.
DMSO was used as the solvent and it contained 13.75 g naproxen per 100 mL solvent. An ice bath was used to chill the sample to avoid over heating with multiple passes.
The microfluidizer pressure was set to 24,000 psi, using the antisolvent. […] The outlet from the cooling coil of the microfluidizer was placed in the inlet reservoir to allow for recycling of the process. The Ivek Pump was set for 20 mL/min.
With the Microfluidizer running at 24,000 psi in a recirculation mode the Pump and Ulrasonic Probe were simutaneously turned on for 30 seconds and then immediately turned off. A single pass sample was collected for particle size analyzsis. This sample contained 1.375 grams of naproxen in the mixed solution of DMSO & 0.5% triton X-100 DI water. The Microfluidizer continued to run for an additional 150 seconds for a total of 180 seconds. After six passes, a sample was collected to evaulate particle size.
The graph presented in FIG. 3 is a plot of naproxen particle diameter (x axis) vs. frequency of occurrence of the particle diameter (y axis). Table 6 provides the mean and median particle size for each run.

[1] = no ultrasonic step, 1 pass through Microfluidizer at 24,000 psi
[2] = no ultrasonic step, 6 passes through Microfluidizer at 24,000 psi
[3] = with ultrasonic initial mixing, 1 pass through Microfluidizer at 24,000 psi, DMSO / 0.5% Triton X-100 in water
[4] = with ultrasonic initial mixing, 6 passes through Microfluidizer at 24,000 psi, DMSO / 0.5% Triton X-100 in water

Structure (SMILES): COc1ccc2cc([C@H](C)C(=O)O)ccc2c1 [naproxen]
- Mean Particle Size [1]: 4.65 μm and 8.199 μm
- Median particle size [1]: 4.784 μm and 8.324 μm
- Mean Particle Size [2]: 2.4845 μm and 2.47 μm
- Median particle size [2]: 1.214 μm and 1.696 μm
- Mean Particle Size [3]: 1.021 μm and 1.257 μm
- Median particle size [3]: 0.3267 μm and 0.6459 μm
- Mean Particle Size [4]: 0.6051 μm and 0.606 μm
- Median particle size [4]: 0.5067 μm and 0.4602 μm
- median naproxen particle size (diameter) (with ultrasonic initial mixing, regardless of how many passes were employed): less than 1 μm
